Experimental data reported in patent US20250257060A1, “OXADIAZOLE COMPOUND, PHARMACEUTICAL COMPOSITION COMPRISING SAME, AND USE THEREOF” (SUZHOU GENHOUSE BIO CO., LTD., priority 2022, published 2025).
Like-named read-outs stand apart in the source and are kept apart here.

Key:
HDAC6 = HDAC6 (Homo sapiens (Human), UniProt Q9UBN7); assay: HDAC6 enzymatic activity assay; type: biochemical
In short: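 Recombinant HDAC6 with compound and Ac-GAK(Ac)-AMC substrate ([…]), 37° C. for 30 min, then developed with trypsin plus TSA for 15 min at room temperature. IC50 from curve fitting.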

HDAC1 = HDAC1 (Homo sapiens (Human), UniProt Q13547); assay: HDAC subtype enzymatic activity assay, HDAC1; type: biochemical; conditions: read-out: HADC1 Inhibition rate (%)
Description: The inhibitory activity of the compounds of the present application on HDAC1-5 and 7-11 was evaluated by an enzymatic activity assay.
1 M Trypsin and 10 M TSA were added, and the plate was incubated at room temperature for 15 min. […] IC50 was obtained by fitting using GraphPadPrism 7.0 software.

[1] = system: acetylation level of α-tubulin in A375 cells; assay: Assay on acetylation level of α-tubulin, A375 cells; type: cell-based; conditions: Homo sapiens, A-375, 6 h
Description: (§1) A375/HCT116/HCC827 cells at a logarithmic growth phase were taken, digested with a […] (trypsin), centrifuged, counted, and plated in a 96-well plate at an appropriate cell density (30,000 cells/well) at 100 µL/well, and an appropriate amount of PBS was added around the plate for water sealing. The next day, the cells were treated with the compounds at different concentrations (starting at 100 μM, 5-fold dilution, 9 concentration gradients). After 6 h, the medium was pipetted out and the cells were washed twice with 100 μL of PBST. The cells were then immobilized in 4% paraformaldehyde, and the plate was incubated at room temperature for 20 min. The stationary liquid was discarded and the cells were washed with PBST. 150 μL of special blocking buffer (containing 1% Triton-100) was added to each well for blocking at room temperature for 2 h, and the plate was washed with PBS to remove excess blocking buffer. α-tubulin (DM1A) mouse mAb and acetyl-α-tubulin (Lys40) (D20G3) XP rabbit mAb were diluted at a 1:2000 ratio with a blocking buffer containing 0.033% Triton-100. The dilutions were added to the 96-well plate and the plate was incubated overnight at 4° C. Meanwhile, a blank control group was set. The next day, the plate was washed twice with PBST. […] Fluorescence signals at 700 nm and 800 nm were detected with a Li-COR Odyssey two-color near-infrared laser imager.

[2] = system: acetylation level of α-tubulin in HCC827 cells; assay: Assay on acetylation level of α-tubulin, HCC827 cells; type: cell-based; conditions: Homo sapiens, 6 h
Description: as §1

[3] = Pharmacokinetic test in mice (IV and PO); type: in vivo, BALB/c mice; conditions: for Cmax / AUC(0-inf) / AUC(0-t) / MRT inf / Vd / Tmax: BALB/c, mouse, plasma; for MRT inf: read-out: MRT(0-∞); for Vd: read-out: Vz
In short: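 BALB/c mice (3 per group) given single IV or intragastric doses; blood sampled orbitally at 0.25–24 h into K2-EDTA tubes for plasma. Concentrations measured by LC-MS/MS; parameters from non-compartmental analysis with linear-log trapezoidal method.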

[4] = po, 10 mg/kg, read-out: C0/Cmax
[5] = po, 100 mg/kg, read-out: C0/Cmax
[6] = mice, PO 30 mg/kg (Cmax), read-out: C0/Cmax

Chain of HDAC1 (Q13547 whole entry): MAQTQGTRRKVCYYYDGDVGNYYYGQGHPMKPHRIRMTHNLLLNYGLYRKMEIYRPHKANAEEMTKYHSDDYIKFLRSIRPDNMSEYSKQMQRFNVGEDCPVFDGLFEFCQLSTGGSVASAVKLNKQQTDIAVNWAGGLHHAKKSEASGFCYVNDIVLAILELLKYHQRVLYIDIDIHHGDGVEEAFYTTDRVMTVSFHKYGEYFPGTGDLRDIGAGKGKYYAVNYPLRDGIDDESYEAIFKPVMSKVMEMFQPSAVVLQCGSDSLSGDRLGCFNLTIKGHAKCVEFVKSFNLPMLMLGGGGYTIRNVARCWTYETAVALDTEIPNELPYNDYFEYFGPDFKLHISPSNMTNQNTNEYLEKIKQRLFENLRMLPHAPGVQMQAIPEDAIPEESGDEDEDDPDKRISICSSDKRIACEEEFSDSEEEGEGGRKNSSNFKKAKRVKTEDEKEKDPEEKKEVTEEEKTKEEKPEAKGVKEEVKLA
Chain of HDAC6 (Q9UBN7 whole entry): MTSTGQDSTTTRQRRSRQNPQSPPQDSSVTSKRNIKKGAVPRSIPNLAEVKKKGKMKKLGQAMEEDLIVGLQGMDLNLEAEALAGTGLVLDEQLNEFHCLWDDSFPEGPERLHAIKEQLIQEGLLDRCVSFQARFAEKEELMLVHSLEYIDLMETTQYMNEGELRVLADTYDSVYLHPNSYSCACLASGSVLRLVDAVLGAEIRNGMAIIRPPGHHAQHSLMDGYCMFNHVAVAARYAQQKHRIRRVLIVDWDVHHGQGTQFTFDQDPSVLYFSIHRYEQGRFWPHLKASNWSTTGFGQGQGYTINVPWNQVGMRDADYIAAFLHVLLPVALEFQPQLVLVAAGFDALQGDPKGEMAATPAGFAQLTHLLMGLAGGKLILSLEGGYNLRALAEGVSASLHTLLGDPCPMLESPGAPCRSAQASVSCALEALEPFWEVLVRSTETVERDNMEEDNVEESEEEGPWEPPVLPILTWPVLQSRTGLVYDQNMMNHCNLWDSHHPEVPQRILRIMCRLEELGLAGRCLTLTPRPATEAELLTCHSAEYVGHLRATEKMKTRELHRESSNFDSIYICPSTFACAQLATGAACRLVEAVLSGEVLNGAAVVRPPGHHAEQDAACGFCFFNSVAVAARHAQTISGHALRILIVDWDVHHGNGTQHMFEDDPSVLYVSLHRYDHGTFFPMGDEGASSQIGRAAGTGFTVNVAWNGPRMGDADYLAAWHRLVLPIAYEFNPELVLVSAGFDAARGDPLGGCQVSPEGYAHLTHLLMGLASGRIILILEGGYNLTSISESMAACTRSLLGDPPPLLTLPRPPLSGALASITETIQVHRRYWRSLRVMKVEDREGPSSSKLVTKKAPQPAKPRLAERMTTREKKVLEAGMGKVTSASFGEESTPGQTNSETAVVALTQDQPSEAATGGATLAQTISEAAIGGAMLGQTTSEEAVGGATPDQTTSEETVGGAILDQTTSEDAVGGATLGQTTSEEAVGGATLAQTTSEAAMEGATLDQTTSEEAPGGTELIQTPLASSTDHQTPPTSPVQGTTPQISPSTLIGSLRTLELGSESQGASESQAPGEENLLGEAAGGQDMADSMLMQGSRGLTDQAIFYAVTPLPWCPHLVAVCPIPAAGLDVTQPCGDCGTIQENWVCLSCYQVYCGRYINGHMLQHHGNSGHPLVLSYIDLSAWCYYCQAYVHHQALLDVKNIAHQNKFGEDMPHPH

CC(F)(F)C(=O)N[C@@H]1CCCC[C@H]1N1Cc2ccc(-c3nnc(C(F)F)o3)cc2S1(=O)=O [Compound 1]
IC50 (HDAC6): 59 nM | inhibition at 1 µM (HDAC1; 1 μM): 8.57% | inhibition at 10 µM (HDAC1; 10 μM): -3.17% | EC50 [1]: 393 ± 192 nM | EC50 [2]: 338 nM | Cmax [3, 4]: 8.97 µM | Cmax [3, 5]: 30.5 µM | AUC(0-inf) ([3]; mice, IV 2 mg/kg): 9.88 µM·h | AUC(0-t) ([3]; mice, IV 2 mg/kg): 9.88 µM·h | Cmax ([3]; mice, IV 2 mg/kg (C0)): 4.52 µM | MRT inf ([3]; mice, IV 2 mg/kg): 2.19 h | Vd ([3]; mice, IV 2 mg/kg): 0.684 L/kg | AUC(0-inf) ([3]; mice, PO 10 mg/kg): 45.2 µM·h | AUC(0-t) ([3]; mice, PO 10 mg/kg): 45.2 µM·h | Tmax ([3]; mice, PO 10 mg/kg): 1 h | MRT inf ([3]; mice, PO 10 mg/kg): 3.35 h | AUC(0-inf) ([3]; mice, PO 30 mg/kg): 73.1 µM·h | AUC(0-t) ([3]; mice, PO 30 mg/kg): 73.1 µM·h | Tmax ([3]; mice, PO 30 mg/kg): 0.417 h | Cmax [3, 6]: 17.5 µM | MRT inf ([3]; mice, PO 30 mg/kg): 3.65 h | AUC(0-inf) ([3]; mice, PO 100 mg/kg): 171 µM·h | AUC(0-t) ([3]; mice, PO 100 mg/kg): 171 µM·h | Tmax ([3]; mice, PO 100 mg/kg): 1.5 h | MRT inf ([3]; mice, PO 100 mg/kg): 3.71 h | CLz ([3]; mice, IV 2 mg/kg): 7.1 mL/min/kg | t½z ([3]; mice, IV 2 mg/kg): 1.062 h | F ([3]; mice, PO 10 mg/kg): 91.46% | t½z ([3]; mice, PO 10 mg/kg): 0.919 h | F ([3]; mice, PO 30 mg/kg): 49.31% | t½z ([3]; mice, PO 30 mg/kg): 0.918 h | F ([3]; mice, PO 100 mg/kg): 34.72% | t½z ([3]; mice, PO 100 mg/kg): 1.292 h

O=C(N[C@H]1[C@H](N2Cc3ccc(-c4nnc(C(F)F)o4)cc3S2(=O)=O)CCCC1(F)F)C(F)F [Compound 61]
IC50 (HDAC6): 63 nM | Cmax [3, 4]: 12.6 µM | AUC(0-inf) ([3]; mice, IV 2 mg/kg): 15.4 µM·h | AUC(0-t) ([3]; mice, IV 2 mg/kg): 12.8 µM·h | Cmax ([3]; mice, IV 2 mg/kg (C0)): 4.52 µM | MRT inf ([3]; mice, IV 2 mg/kg): 4.38 h | Vd ([3]; mice, IV 2 mg/kg): 1.18 L/kg | AUC(0-inf) ([3]; mice, PO 10 mg/kg): 73.4 µM·h | AUC(0-t) ([3]; mice, PO 10 mg/kg): 57 µM·h | Tmax ([3]; mice, PO 10 mg/kg): 1 h | MRT inf ([3]; mice, PO 10 mg/kg): 5.3 h | CLz ([3]; mice, IV 2 mg/kg): 4.35 mL/min/kg | t½z ([3]; mice, IV 2 mg/kg): 3.12 h | F ([3]; mice, PO 10 mg/kg): 89.2% | t½z ([3]; mice, PO 10 mg/kg): 3.551 h

O=C(N[C@@H]1CCCC[C@H]1N1Cc2ccc(-c3nnc(C(F)F)o3)cc2S1(=O)=O)C(F)F [Compound 2]
inhibition at 1 µM (HDAC1): -11.9% | inhibition at 10 µM (HDAC1): -3.91% | EC50 [1]: 202 ± 115 nM | EC50 [2]: 288 ± 49.3 nM | Cmax [3, 4]: 13.9 µM | Cmax [3, 5]: 87.9 µM | AUC(0-inf) ([3]; mice, IV 2 mg/kg): 12.6 µM·h | AUC(0-t) ([3]; mice, IV 2 mg/kg): 12.6 µM·h | Cmax ([3]; mice, IV 2 mg/kg (C0)): 6.75 µM | MRT inf ([3]; mice, IV 2 mg/kg): 2.35 h | Vd ([3]; mice, IV 2 mg/kg): 0.55 L/kg | AUC(0-inf) ([3]; mice, PO 10 mg/kg): 77.8 µM·h | AUC(0-t) ([3]; mice, PO 10 mg/kg): 77.7 µM·h | Tmax ([3]; mice, PO 10 mg/kg): 0.5 h | MRT inf ([3]; mice, PO 10 mg/kg): 4.5 h | AUC(0-inf) ([3]; mice, PO 30 mg/kg): 182 µM·h | AUC(0-t) ([3]; mice, PO 30 mg/kg): 182 µM·h | Tmax ([3]; mice, PO 30 mg/kg): 0.67 h | Cmax [3, 6]: 35 µM | MRT inf ([3]; mice, PO 30 mg/kg): 3.66 h | AUC(0-inf) ([3]; mice, PO 100 mg/kg): 601 µM·h | AUC(0-t) ([3]; mice, PO 100 mg/kg): 601 µM·h | Tmax ([3]; mice, PO 100 mg/kg): 1.33 h | MRT inf ([3]; mice, PO 100 mg/kg): 4.33 h | CLz ([3]; mice, IV 2 mg/kg): 6 mL/min/kg | t½z ([3]; mice, IV 2 mg/kg): 1.01 h | F ([3]; mice, PO 10 mg/kg): 123.92% | t½z ([3]; mice, PO 10 mg/kg): 1.62 h | F ([3]; mice, PO 30 mg/kg): 96.93% | t½z ([3]; mice, PO 30 mg/kg): 0.87 h | F ([3]; mice, PO 100 mg/kg): 95.71% | t½z ([3]; mice, PO 100 mg/kg): 0.81 h
